This note sets out measurements from US11008292B2, “FGFR4 inhibitor and preparation method and use thereof” (GUANGDONG ZHONGSHENG PHARMACEUTICAL CO., LTD, priority 2016, dated 2021).

One data set concerns the target T1, FGFR4 kinases (Homo sapiens, UniProt P22455).
T1 construct: purchased Life technology
Kind of data set: In vitro enzyme activity test, Z′-LYTE Assay, FGFR4 enzymatic reaction. The class given is biochemical. The note with it: for IC50: Z′-LYTE detection, 150 μM ATP. The procedure:
(§1) The inhibitory effects of the compounds on FGFR4 kinases were assessed by detecting the enzymatic activities through Z′-LYTE® Assay, with the IC50 value of the compound as the indicator. This activity test was performed by Life technology.
(§2) The test compounds were diluted in a concentration gradient of 3-times, the final concentrations were 10 concentrations ranging from 10 μM to 0.5 nM, with double hole for each concentration; the content of DMSO in the detection reaction was 1%.
FGFR4 Enzymatic Reaction:
[…] The detection plate was Bar-coded Corning, low volume NBS, black 384-well plate, reaction conducted at room temperature for 60 minutes, and the reaction system was 10μμL.
(§3) To the kinase reaction solution was added 5 μL Development reagent B (1:64) to stop the reaction and incubated at 23° C. for 60 minutes, reading the plate with Envision instrument.
(§4) Data was transformed into the phosphorylation rate and the inhibitory rate by curve fitting with Model 205 in XLFIT (iDBS) to obtain the IC50 data of the compounds. It was set as 0% if the bottom of the curve was not in the range of −20% to 20%; otherwise it was set as 100% if the top of the curve was not in the range of 70% to 130%.

The next data set deals with T2, FGFR1 protein kinase (Homo sapiens, UniProt P11362).
T2 construct: purchased Life technology
Kind of data set: In vitro enzyme activity test, Z′-LYTE Assay, FGFR1 enzymatic reaction. Particulars: Z′-LYTE detection; 25 μM ATP. Type of data set: biochemical. The procedure: as §1, §2
FGFR1 Enzymatic Reaction:
1 nM FGFR1 protein kinase, 2 μM Tyr4 peptide, 25 μM ATP, 50 mM HEPES (pH 7.5), 10 mM MgCl2, 1 mM EGTA, 0.01% BRIJ-35, 2 mM MnCl2, 1 mM DTT. The detection plate was Black Proxiplate 384-Plus plate (PerkinElmer), reaction conducted at room temperature for 60 minutes, and the reaction system was 10μμL.
as §3, §4

Data set [1] can be described thus: Pharmacokinetic evaluation in mice (IV and oral gavage). Type of data set: in vivo, female Balb/c nude mice. The note with it: for F (bioavailability; oral absorption ratio): PO gavage 10 mg/kg vs IV 2 mg/kg; for clearance: read-out: Cl (plasma clearance); for half-life: read-out: T1/2 (elimination half-life) (converted); for Vd: read-out: Vdss (steady-state apparent volume of distribution); for Cmax: read-out: Cmax (peak concentration); for Tmax: read-out: Tmax (time to peak). As for the experimental part:
[…] The test compound suspended in the corresponding solvent at 1 mg/ml was administered by gavage to female Balb/c nude mice (fasted overnight, at an age of 7-9 weeks), with a dosage of 10 mg/kg. Two groups of animals were both blood sampled about 30 μL from jugular vein or tail vein at 0.0833, 0.25, 0.5, 1.0, 2.0, 4.0, 6.0, 8.0 and 24 h post-administration, which was placed into an anticoagulant tube charged with EDTA-K2, and plasma was separated by centrifugation. Plasma concentrations were determined by LC-MS/MS process using WinNonlin™ Version 6.3 (Pharsight, Mountain View, Calif.) pharmacokinetic software, calculating the related pharmacokinetic parameters with a linear logarithmic trapezoidal method for […] models.

[2] abbreviates: mouse, plasma, IV tail vein 2 mg/kg, female Balb/c nude mice.
Setting [3] is: mouse, plasma, IV tail vein 0.2 mg/kg, female Balb/c nude mice.
Setting [4] is: mouse, plasma, PO gavage 10 mg/kg, female Balb/c nude mice.

Where two headings read alike, the source gives them in different places.

T1 sequence (P22455 22-802): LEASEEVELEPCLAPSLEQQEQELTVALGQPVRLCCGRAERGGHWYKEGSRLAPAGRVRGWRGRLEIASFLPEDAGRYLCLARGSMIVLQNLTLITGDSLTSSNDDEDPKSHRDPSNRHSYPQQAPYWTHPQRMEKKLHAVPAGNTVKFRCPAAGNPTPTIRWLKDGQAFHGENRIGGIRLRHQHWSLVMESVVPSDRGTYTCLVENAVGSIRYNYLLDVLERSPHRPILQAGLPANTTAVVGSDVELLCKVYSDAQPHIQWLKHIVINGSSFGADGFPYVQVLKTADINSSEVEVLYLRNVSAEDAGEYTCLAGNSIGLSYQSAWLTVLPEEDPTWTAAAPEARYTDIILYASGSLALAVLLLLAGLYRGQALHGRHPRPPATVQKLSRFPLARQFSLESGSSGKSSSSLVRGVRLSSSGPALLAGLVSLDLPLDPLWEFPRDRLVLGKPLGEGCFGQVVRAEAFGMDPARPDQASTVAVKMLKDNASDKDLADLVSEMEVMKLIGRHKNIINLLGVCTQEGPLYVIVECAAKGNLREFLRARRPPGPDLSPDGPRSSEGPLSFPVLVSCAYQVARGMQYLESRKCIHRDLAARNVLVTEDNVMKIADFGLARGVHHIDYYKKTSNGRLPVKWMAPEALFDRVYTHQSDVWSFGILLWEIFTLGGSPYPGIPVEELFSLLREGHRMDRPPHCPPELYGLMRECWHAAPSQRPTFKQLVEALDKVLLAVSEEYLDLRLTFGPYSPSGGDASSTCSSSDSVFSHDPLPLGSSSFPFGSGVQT
T2 sequence (P11362 22-822): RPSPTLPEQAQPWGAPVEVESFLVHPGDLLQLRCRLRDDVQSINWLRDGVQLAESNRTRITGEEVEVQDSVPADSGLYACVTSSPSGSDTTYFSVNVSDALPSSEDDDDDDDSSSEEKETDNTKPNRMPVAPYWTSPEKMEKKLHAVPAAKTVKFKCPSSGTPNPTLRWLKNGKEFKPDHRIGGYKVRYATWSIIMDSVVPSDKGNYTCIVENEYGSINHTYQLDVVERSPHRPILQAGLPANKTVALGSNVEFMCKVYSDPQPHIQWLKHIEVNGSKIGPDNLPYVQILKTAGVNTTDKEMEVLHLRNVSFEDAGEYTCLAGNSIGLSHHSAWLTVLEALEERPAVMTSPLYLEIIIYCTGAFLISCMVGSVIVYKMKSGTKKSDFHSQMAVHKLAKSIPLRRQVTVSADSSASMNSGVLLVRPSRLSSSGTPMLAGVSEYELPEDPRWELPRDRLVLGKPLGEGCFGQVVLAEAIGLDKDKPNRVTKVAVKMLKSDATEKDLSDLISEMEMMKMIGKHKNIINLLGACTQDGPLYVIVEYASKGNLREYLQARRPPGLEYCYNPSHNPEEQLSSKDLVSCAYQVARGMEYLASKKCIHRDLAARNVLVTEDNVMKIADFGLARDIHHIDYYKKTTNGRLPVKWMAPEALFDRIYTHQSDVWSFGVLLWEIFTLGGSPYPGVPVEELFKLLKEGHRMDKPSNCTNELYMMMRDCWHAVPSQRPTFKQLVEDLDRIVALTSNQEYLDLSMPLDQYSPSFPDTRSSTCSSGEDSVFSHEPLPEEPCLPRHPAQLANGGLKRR

For `C=CC(=O)Nc1cccc(C)c1Nc1ccc(/C(F)=C/c2cc(OC)cc(OC)c2)cn1` [Control example 1, reference compound], the IC50 at FGFR4 kinases is 8060 nM; against FGFR1 protein kinase, more than 10000 nM.

Turning to `C=CC(=O)Nc1cc(N2CCN(CC)CC2)cc(C)c1Nc1ncc(/C=C/c2c(Cl)c(OC)cc(OC)c2Cl)cn1` [Control example 2, reference compound], the IC50 turned out to be 14 nM on FGFR4 kinases and 2970 nM against FGFR1 protein kinase.

At FGFR4 kinases, `C=CC(=O)N[C@H]1COC[C@H]1Nc1ncc(/C=C/c2c(Cl)c(OC)cc(OC)c2Cl)cn1` [Control example 3, reference compound] came in with an IC50 of 408 nM.

Turning to `C=CC(=O)N[C@H]1CCOC[C@H]1Nc1ncc(OCc2c(F)c(OC)cc(OC)c2F)cn1` [Control example 4], in data set [1] (female Balb/c nude mice), the “F (bioavailability; oral absorption ratio)” value was 0%. Also, in data set [1] (setting [2]), the AUC(0-t) was 0.958 µM·h, the clearance stood at 77.1 mL/min/kg, the half-life is 6.84 min and the Vd is 0.533 L/kg.

As for `C=CC(=O)Nc1cccc(C)c1Nc1ncc(OCc2c(Cl)c(OC)cc(OC)c2Cl)cn1` [Control example 5], in data set [1] (female Balb/c nude mice), the “F (bioavailability; oral absorption ratio)” value was determined as 0%. In addition, in data set [1] (setting [2]), the AUC(0-t) was determined as 0.528 µM·h, the clearance was determined as 127 mL/min/kg, the half-life is 13.3 min and the Vd worked out at 1.28 L/kg.

Take `C=CC(=O)Nc1cccc(C)c1Nc1ncc(OCc2c(F)c(OC)cc(OC)c2F)cn1` [Control example 6]: in data set [1] (female Balb/c nude mice), the “F (bioavailability; oral absorption ratio)” value worked out at 0%. For the same compound, in data set [1] (setting [2]), the AUC(0-t) came to 0.388 µM·h, the clearance worked out at 186 mL/min/kg, the half-life is 14.1 min and the Vd was determined as 2.44 L/kg.

For the compound `C=CC(=O)N[C@H]1COC[C@H]1Nc1ncc(OCc2c(F)c(OC)cc(OC)c2F)cn1` [Control example 7], the “Cl (plasma clearance)” value in data set [1] (IV tail vein 0.2 mg/kg, female Balb/c nude mice) came out at 65 mL/min/kg. For the same compound, in data set [1] (setting [3]), the AUC(0-t) is 0.113 µM·h, the half-life was 6.54 min and the Vd came to 0.581 L/kg. Also, in data set [1] (mouse, plasma, PO gavage 1.0 mg/kg vs IV 0.2 mg/kg, female Balb/c nude mice, read-out: F (bioavailability)), the bioavailability came to 0%.

Consider `C=CC(=O)N[C@H]1COC[C@H]1Nc1ncc(OCc2c(Cl)c(OC)cc(OC)c2Cl)cn1` [Control example 8], for which the “F (bioavailability; oral absorption ratio)” value in data set [1] (female Balb/c nude mice) came out at 12.3%. In addition, in data set [1] (setting [2]), the AUC(0-t) came out at 1.8 µM·h, the clearance came out at 39.7 mL/min/kg, the half-life was 9.24 min and the Vd came out at 0.407 L/kg. Moreover, in data set [1] (setting [4]), the AUC(0-t) was found to be 1.1 µM·h, the Cmax was determined as 2710 nM and the Tmax amounted to 15 min.

As to `C=CC(=O)Nc1cccc(C)c1Nc1ccc(/C(F)=C/c2c(Cl)c(OC)cc(OC)c2Cl)cn1` [Example 1], the IC50 at FGFR4 kinases was 112 nM; at FGFR1 protein kinase it was more than 10000 nM. Besides, the “FGFR4 inhibitory activity enhanced compared with the control example 1” value on FGFR4 kinases (ratio to control example 1) was found to be 70 times.

For the compound `C=CC(=O)Nc1cccc(C)c1Nc1ncc(/C(F)=C/c2c(Cl)c(OC)cc(OC)c2Cl)cn1` [Example 2], the IC50 is 84 nM on FGFR4 kinases and more than 10000 nM against FGFR1 protein kinase.

In turn, `C=CC(=O)Nc1cccc(C)c1Nc1cnc(/C(F)=C/c2c(Cl)c(OC)cc(OC)c2Cl)cn1` [Example 5] came in with an IC50 on FGFR4 kinases of 203 nM.

In the case of `C=CC(=O)Nc1cccc(F)c1Nc1ccc(/C(F)=C/c2c(Cl)c(OC)cc(OC)c2Cl)cn1` [Example 6], the IC50 against FGFR4 kinases was 124 nM; against FGFR1 protein kinase it was more than 10000 nM.

On FGFR4 kinases, `C=CC(=O)Nc1cccc(C)c1Nc1ccc(/C(F)=C(\C)c2c(Cl)c(OC)cc(OC)c2Cl)cn1` [Example 10] had a half-inhibitory concentration (IC50) of 544 nM.

With `C=CC(=O)Nc1cc(N2CCN(CC)CC2)cc(C)c1Nc1ncc(/C(F)=C/c2c(Cl)c(OC)cc(OC)c2Cl)cn1` [Example 11], the IC50 on FGFR4 kinases was found to be 20.1 nM; on FGFR1 protein kinase it was 4980 nM.

Turning to `C=CC(=O)Nc1cc(N2CCN(CC)CC2)c(OC)cc1Nc1ncc(/C=C(\F)c2c(Cl)c(OC)cc(OC)c2Cl)cn1` [Example 12], the IC50 against FGFR4 kinases amounted to 10.9 nM; against FGFR1 protein kinase, 25.8 nM.

For the compound `C=CC(=O)Nc1ccc(N2CCN(CC)CC2)c(C)c1Nc1ncc(/C=C(\F)c2c(Cl)c(OC)cc(OC)c2Cl)cn1` [Example 13], the figures for the IC50 against FGFR4 kinases and against FGFR1 protein kinase were 30.1 nM and 613 nM, respectively.

Regarding `C=CC(=O)Nc1ccc(OCCN2CCN(C)CC2)c(C)c1Nc1ncc(/C=C(\F)c2c(Cl)c(OC)cc(OC)c2Cl)cn1` [Example 14], the IC50 at FGFR4 kinases was 17.7 nM; at FGFR1 protein kinase it was 182 nM.

Consider `C=CC(=O)Nc1cc(N2CCN(CC)CC2)cc(C)c1Nc1ncc(/C=C(\F)c2c(Cl)c(OC)cc(OC)c2Cl)cn1` [Example 15], for which the IC50 on FGFR4 kinases turned out to be 1.58 nM; at FGFR1 protein kinase, 813 nM. In addition, the “FGFR4 inhibitory activity enhancement vs control example” value on FGFR4 kinases (ratio to control example 2) was approximately 9 times.

Turning to `C=CC(=O)Nc1cccc(F)c1Nc1ccc(/C=C(\F)c2c(Cl)c(OC)cc(OC)c2Cl)cn1` [Example 18], the IC50 on FGFR4 kinases was found to be 105 nM; against FGFR1 protein kinase it was 1900 nM.

Consider `C=CC(=O)N[C@H]1COC[C@H]1Nc1ncc(/C=C(\F)c2c(Cl)c(OC)cc(OC)c2Cl)cn1` [Example 19], for which the results for the IC50 against FGFR4 kinases and on FGFR1 protein kinase were 47 nM and 3100 nM, respectively. Moreover, at FGFR4 kinases (ratio to control example 3), the “FGFR4 inhibitory activity enhancement vs control example” value is on record as approximately 9 times.

As for `C=CC(=O)Nc1cc(F)c(F)cc1Nc1ccc(/C=C(\F)c2c(Cl)c(OC)cc(OC)c2Cl)cn1` [Example 22], 575 nM corresponded to half-maximal inhibition at FGFR4 kinases (IC50).

On FGFR4 kinases, `C=CC(=O)Nc1cccc(Cl)c1Nc1ccc(/C=C(\F)c2c(Cl)c(OC)cc(OC)c2Cl)cn1` [Example 23] registered an IC50 of 387 nM.

With `C=CC(=O)Nc1cccc(C)c1Nc1ncc(/C=C(\F)c2c(Cl)c(OC)cc(OC)c2Cl)cn1` [Example 24], the IC50 on FGFR4 kinases is 10 nM. This compound registered an IC50 against FGFR1 protein kinase of 2100 nM. Also, the “stability enhanced (plasma clearance) compared with the control example 5” value in data set [1] (IV, mice, ratio to control example 5) worked out at 2 times. Also, the “stability enhanced (plasma clearance) compared with the control example 6” value in data set [1] (IV, mice, ratio to control example 6) is “more than 3 times”. For the same compound, the “F (bioavailability; oral absorption ratio)” value in data set [1] (female Balb/c nude mice) is on record as 14.8%. Besides, in data set [1] (setting [2]), the AUC(0-t) was determined as 1.32 µM·h, the clearance turned out to be 50 mL/min/kg, the half-life is 32.9 min and the Vd is 1.82 L/kg. Besides, in data set [1] (setting [4]), the AUC(0-t) was 0.962 µM·h, the Cmax is 282 nM and the Tmax turned out to be 30 min.

As to `C=CC(=O)N[C@@H]1CCC[C@@H]1Nc1ncc(/C=C(\F)c2c(Cl)c(OC)cc(OC)c2Cl)cn1` [Example 25], the IC50 came to 476 nM against FGFR4 kinases and 355 nM at FGFR1 protein kinase.

In turn, `C=CC(=O)Nc1cc(N2CCN(C(C)=O)CC2)cc(C)c1Nc1ncc(/C=C(\F)c2c(Cl)c(OC)cc(OC)c2Cl)cn1` [Example 26] had an IC50 at FGFR4 kinases of 13 nM.

With `C=CC(=O)Nc1cc(Cl)cc(F)c1Nc1ccc(/C=C(\F)c2c(Cl)c(OC)cc(OC)c2Cl)cn1` [Example 28], the IC50 against FGFR4 kinases was determined as 263 nM; against FGFR1 protein kinase, 3210 nM.

Take `C=CC(=O)Nc1cc(F)cc(C)c1Nc1ccc(/C=C(\F)c2c(Cl)c(OC)cc(OC)c2Cl)cn1` [Example 29]: at FGFR4 kinases, half-maximal inhibition (IC50) required 268 nM.

`C=CC(=O)Nc1cc(F)cc(C)c1Nc1ncc(/C=C(\F)c2c(Cl)c(OC)cc(OC)c2Cl)cn1` [Example 30]: 238 nM corresponded to half-maximal inhibition against FGFR4 kinases (IC50).

Regarding `C=CC(=O)Nc1ccc(Cl)c(C)c1Nc1ccc(/C=C(\F)c2c(Cl)c(OC)cc(OC)c2Cl)cn1` [Example 31], the IC50 on FGFR4 kinases is 560 nM; at FGFR1 protein kinase, more than 10000 nM.

Regarding `C=CC(=O)N[C@@H]1COC[C@@H]1Nc1ncc(/C(F)=C/c2c(Cl)c(OC)cc(OC)c2Cl)cn1` [Example 32], the IC50 on FGFR4 kinases came to 361 nM.

In turn, `C=CC(=O)NC1CN(C(C)=O)CC1Nc1ncc(/C=C(\F)c2c(Cl)c(OC)cc(OC)c2Cl)cn1` (stereo not shown) [Example 34] showed an IC50 at FGFR4 kinases of 199 nM.

Turning to `C=CC(=O)Nc1ccc(OC)c(C)c1Nc1ncc(/C=C(\F)c2c(Cl)c(OC)cc(OC)c2Cl)cn1` [Example 35], the IC50 at FGFR4 kinases is 23 nM; on FGFR1 protein kinase it was 174 nM.

By IC50 is commonly meant the point on the concentration scale where inhibition reaches its midpoint. A higher IC50 goes with lower potency. The term AUC(0-t) denotes the area under the concentration-time curve up to a stated or last time point. Higher therefore signals more exposure. One may read the bioavailability as the share of a dose that reaches the circulation, judged against a reference dose that is usually intravenous. One may read the Tmax as the time from dosing to the highest level.
